Several values for one entry are separate records, joined by “and”; a condition that tells them apart may be missing. Identical values can stand only once.
System: HeLa cells
Assay: Sphingolipid content of treated HeLa cells by quantitative mass spectrometry
Type: cell-based
Conditions: for effect on total sphingomyelin: 48 hours, serum-reduced medium; for Cer16 / Cer18 / Cer20 / Cer22 / Cer24 / Cer24:1 / Cer total / S1P / SM16 / SM18 / SM20 / SM22 / SM24 / SM24:1 / SM total / Sph / ratio total SM/Cer: HeLa, 42h, single replicates; for Cer16 / Cer18 / Cer20 / Cer22 / Cer24 / Cer24:1 / Cer total / S1P / SM16 / SM18 / SM20 / SM22 / SM24 / SM24:1 / SM total / Sph: 500.000 cells per sample
Procedure: 5.2 Cellular experiment for lipidomic analysis
Hela cells were cultured in six well plates (177000 cells per well) under standard growth conditions (DMEM with 4mM L-glutamine, 10% FBS, 1% Penicillin-Streptomycin; CO2 incubator with […]
37°C, 5% CO2). […]
After incubation, […]
the adherent cells were washed twice with ice-cold PBS and harvested by treatment with trypsin.
Cells were counted using a Countess II cell counter ( Invitrogen) and adjusted to 500.000 cells per sample. Each sample was then treated as described below.
6. Details for experimental lipidomics
Cells were subjected to lipid extraction using 1.5 mL methanol/chloroform (2:1, v:v) as described. The extraction solvent contained C17-ceramide (Cer17) and C16 -d31-sphingomyelin (d31-SM16) (both Avanti Polar Lipids, Alabaster, USA) as internal standards. Chromatographic separations were achieved on a 1260 Infinity HPLC (Agilent Technologies, Waldbronn, Germany) equipped with a Poroshell 120 EC-C8 column (3.0 × 150 mm, 2.7 µm; Agilent Technologies). A mobile phase system consisting of water (solvent A) and acetonitrile/methanol (1:1, v:v; solvent B), both acidified with 0.1% formic acid, was used for gradient elution at an initial composition of 40:60 (A:B, v:v) and a flow rate of 0.5 mL/min. MS/MS analyses were carried out using a 6490 triple-quadrupole mass spectrometer (Agilent Technologies) operating in the positive electrospray ionization mode (ESI+). The following ion source parameters were set: sheath gas temperature, 375 °C; sheath gas flow, 12 L/min of nitrogen; nebulizer pressure, 30 psi; drying gas temperature, 200 °C; drying gas flow, 15 L/min of nitrogen; capillary voltage, 4000 V; nozzle voltage, 1500 V; iFunnel high pressure RF voltage, 150 V and iFunnel low pressure RF voltage, 60 V. The following mass transitions were recorded (collision energies of 25 eV for all transitions): ceramides: m/z […]
with MassHunter Software (Agilent Technologies). Significance of differences between two samples was calculated by student’s t -test. Asterisks indicate significant differences between treated and untreated samples: * p<0.05; ** p<0.01; *** p<0.005.
Table S1. Sphingolipid content of treated cells.
(1 picture or pasted object on this page, not shown here)

## Cc1cc(C2=NOC(c3cc(Cl)cc(Cl)c3)(C(F)(F)F)C2)ccc1C(=O)NCC(=O)NCC(F)(F)F (stereo not drawn) [20D5, Fluralaner]
HeLa cells
  effect on total sphingomyelin: dose‐dependent reduction
1 µM
  Cer16: 45,48 pmol/sample and 40,19 pmol/sample and 39,73 pmol/sample
  Cer18: 6,03 pmol/sample and 4,12 pmol/sample and 3,84 pmol/sample
  Cer20: 2,67 pmol/sample and 1,37 pmol/sample and 1,12 pmol/sample
  Cer22: 11,46 pmol/sample and 9,24 pmol/sample and 9,12 pmol/sample
  Cer24: 40,67 pmol/sample and 36,50 pmol/sample and 37,27 pmol/sample
  Cer24:1: 46,05 pmol/sample and 40,74 pmol/sample and 40,44 pmol/sample
  Cer total: 152,37 pmol/sample and 131,71 pmol/sample and 131,97 pmol/sample
  S1P: 1,21 pmol/sample and 1,34 pmol/sample and 1,10 pmol/sample
  SM16: 1625,68 pmol/sample and 1717,57 pmol/sample and 1686,01 pmol/sample
  SM18: 54,98 pmol/sample and 59,04 pmol/sample and 56,68 pmol/sample
  SM20: 18,10 pmol/sample and 18,45 pmol/sample and 17,14 pmol/sample
  SM22: 110,98 pmol/sample and 111,56 pmol/sample and 111,04 pmol/sample
  SM24: 197,09 pmol/sample and 206,21 pmol/sample and 199,98 pmol/sample
  SM24:1: 621,75 pmol/sample and 662,66 pmol/sample and 645,68 pmol/sample
  SM total: 2628,58 pmol/sample and 2775,49 pmol/sample and 2716,53 pmol/sample
  Sph: 3,74 pmol/sample and 3,07 pmol/sample and 3,46 pmol/sample
  ratio total SM/Cer: 19,9 and 18,2 and 20,6
2.5 µM
  Cer16: 40,44 pmol/sample and 43,49 pmol/sample and 36,97 pmol/sample
  Cer18: 4,61 pmol/sample and 4,98 pmol/sample and 3,95 pmol/sample
  Cer20: 1,33 pmol/sample and 1,40 pmol/sample and 1,09 pmol/sample
  Cer22: 9,74 pmol/sample and 10,99 pmol/sample and 8,69 pmol/sample
  Cer24: 35,83 pmol/sample and 40,22 pmol/sample and 34,92 pmol/sample
  Cer24:1: 37,47 pmol/sample and 43,87 pmol/sample and 37,54 pmol/sample
  Cer total: 129,42 pmol/sample and 144,94 pmol/sample and 123,16 pmol/sample
  S1P: 1,21 pmol/sample and 1,29 pmol/sample (2×)
  SM16: 1311,55 pmol/sample and 1447,18 pmol/sample and 1450,27 pmol/sample
  SM18: 48,19 pmol/sample and 50,02 pmol/sample and 51,79 pmol/sample
  SM20: 16,11 pmol/sample and 17,46 pmol/sample and 16,39 pmol/sample
  SM22: 98,76 pmol/sample and 109,23 pmol/sample and 102,97 pmol/sample
  SM24: 179,29 pmol/sample and 202,61 pmol/sample and 193,22 pmol/sample
  SM24:1: 587,13 pmol/sample and 553,18 pmol/sample and 603,33 pmol/sample
  SM total: 2401,78 pmol/sample and 2207,08 pmol/sample and 2429,82 pmol/sample
  Sph: 3,04 pmol/sample and 3,17 pmol/sample and 2,91 pmol/sample
  ratio total SM/Cer: 19,5 and 17,1 and 16,8
5 µM
  Cer16: 48,26 pmol/sample and 50,29 pmol/sample and 47,46 pmol/sample
  Cer18: 5,41 pmol/sample and 5,92 pmol/sample and 5,34 pmol/sample
  Cer20: 1,35 pmol/sample and 1,41 pmol/sample and 1,29 pmol/sample
  Cer22: 9,51 pmol/sample and 10,83 pmol/sample and 9,59 pmol/sample
  Cer24: 33,23 pmol/sample and 39,15 pmol/sample and 38,78 pmol/sample
  Cer24:1: 35,26 pmol/sample and 38,24 pmol/sample and 35,25 pmol/sample
  Cer total: 133,01 pmol/sample and 145,85 pmol/sample and 137,71 pmol/sample
  S1P: 1,32 pmol/sample and 1,22 pmol/sample and 1,19 pmol/sample
  SM16: 1128,33 pmol/sample and 1262,96 pmol/sample and 1233,63 pmol/sample
  SM18: 43,19 pmol/sample and 47,39 pmol/sample and 44,90 pmol/sample
  SM20: 13,45 pmol/sample and 15,19 pmol/sample and 13,75 pmol/sample
  SM22: 74,74 pmol/sample and 85,38 pmol/sample and 82,05 pmol/sample
  SM24: 132,70 pmol/sample and 158,23 pmol/sample and 155,99 pmol/sample
  SM24:1: 419,73 pmol/sample and 481,61 pmol/sample and 461,72 pmol/sample
  SM total: 1812,15 pmol/sample and 2050,77 pmol/sample and 1992,04 pmol/sample
  Sph: 3,25 pmol/sample and 3,29 pmol/sample and 4,27 pmol/sample
  ratio total SM/Cer: 13,6 and 14,1 and 14,5

## CCCC(=O)OCOC(=O)C1=C(C)NC(C)=C(C(=O)OC)C1c1cccc(Cl)c1Cl (stereo not drawn) [6B11, Clevidipine butyrate]
HeLa cells
  effect on SM/Cer rate: dramatically increased
  effect on total sphingomyelin: no significant changes
1 µM
  Cer16: 35,47 pmol/sample and 30,33 pmol/sample and 32,28 pmol/sample
  Cer18: 3,21 pmol/sample and 3,62 pmol/sample and 2,31 pmol/sample
  Cer20: 0,82 pmol/sample and 1,87 pmol/sample and 0,75 pmol/sample
  Cer22: 6,64 pmol/sample and 6,96 pmol/sample and 5,21 pmol/sample
  Cer24: 21,95 pmol/sample and 20,24 pmol/sample and 18,20 pmol/sample
  Cer24:1: 41,58 pmol/sample and 36,60 pmol/sample and 35,42 pmol/sample
  Cer total: 109,68 pmol/sample and 101,56 pmol/sample and 92,23 pmol/sample
  S1P: 1,30 pmol/sample (2×) and 1,12 pmol/sample
  SM16: 1664,57 pmol/sample and 1753,19 pmol/sample and 1827,88 pmol/sample
  SM18: 49,35 pmol/sample and 48,17 pmol/sample and 50,13 pmol/sample
  SM20: 16,44 pmol/sample and 17,01 pmol/sample and 16,12 pmol/sample
  SM22: 97,77 pmol/sample and 109,23 pmol/sample and 104,57 pmol/sample
  SM24: 148,40 pmol/sample and 164,36 pmol/sample and 157,65 pmol/sample
  SM24:1: 734,55 pmol/sample and 781,78 pmol/sample and 776,18 pmol/sample
  SM total: 2711,09 pmol/sample and 2873,72 pmol/sample and 2932,53 pmol/sample
  Sph: 2,93 pmol/sample and 3,14 pmol/sample and 2,69 pmol/sample
  ratio total SM/Cer: 29,4 and 26,2 and 28,9
2.5 µM
  Cer16: 31,11 pmol/sample and 34,56 pmol/sample and 32,33 pmol/sample
  Cer18: 2,90 pmol/sample and 3,36 pmol/sample and 2,45 pmol/sample
  Cer20: 1,10 pmol/sample and 1,04 pmol/sample and 0,67 pmol/sample
  Cer22: 6,09 pmol/sample and 6,54 pmol/sample and 4,24 pmol/sample
  Cer24: 19,85 pmol/sample and 19,17 pmol/sample and 13,13 pmol/sample
  Cer24:1: 35,16 pmol/sample and 36,98 pmol/sample and 34,53 pmol/sample
  Cer total: 96,21 pmol/sample and 101,65 pmol/sample and 87,36 pmol/sample
  S1P: 1,11 pmol/sample (2×) and 1,10 pmol/sample
  SM16: 1754,78 pmol/sample and 1844,30 pmol/sample and 1802,54 pmol/sample
  SM18: 52,01 pmol/sample and 48,63 pmol/sample and 47,35 pmol/sample
  SM20: 16,63 pmol/sample and 16,52 pmol/sample and 14,33 pmol/sample
  SM22: 104,73 pmol/sample and 101,64 pmol/sample and 87,68 pmol/sample
  SM24: 164,67 pmol/sample and 154,96 pmol/sample and 126,92 pmol/sample
  SM24:1: 701,62 pmol/sample and 752,78 pmol/sample and 753,00 pmol/sample
  SM total: 2780,44 pmol/sample and 2845,61 pmol/sample and 2919,05 pmol/sample
  Sph: 3,54 pmol/sample and 2,83 pmol/sample and 2,99 pmol/sample
  ratio total SM/Cer: 31,8 and 29,6 and 28,7
5 µM
  Cer16: 29,66 pmol/sample and 34,26 pmol/sample and 31,66 pmol/sample
  Cer18: 2,65 pmol/sample and 3,21 pmol/sample and 2,71 pmol/sample
  Cer20: 0,74 pmol/sample and 0,90 pmol/sample and 0,79 pmol/sample
  Cer22: 5,38 pmol/sample and 6,67 pmol/sample and 6,09 pmol/sample
  Cer24: 17,46 pmol/sample and 20,37 pmol/sample and 20,18 pmol/sample
  Cer24:1: 36,92 pmol/sample and 40,53 pmol/sample and 39,54 pmol/sample
  Cer total: 92,81 pmol/sample and 105,93 pmol/sample and 100,96 pmol/sample
  S1P: 1,11 pmol/sample and 1,25 pmol/sample and 1,08 pmol/sample
  SM16: 1762,30 pmol/sample and 1782,59 pmol/sample and 1722,69 pmol/sample
  SM18: 53,21 pmol/sample and 52,89 pmol/sample and 50,26 pmol/sample
  SM20: 17,74 pmol/sample and 18,28 pmol/sample and 16,92 pmol/sample
  SM22: 109,54 pmol/sample and 111,84 pmol/sample and 106,91 pmol/sample
  SM24: 166,35 pmol/sample and 172,87 pmol/sample and 164,46 pmol/sample
  SM24:1: 783,66 pmol/sample and 796,71 pmol/sample and 771,15 pmol/sample
  SM total: 2892,80 pmol/sample and 2935,19 pmol/sample and 2832,39 pmol/sample
  Sph: 2,83 pmol/sample and 2,13 pmol/sample and 3,03 pmol/sample
  ratio total SM/Cer: 31,2 and 27,7 and 28,1
